Values of other authors in US20100279974A1, “Nucleosides With Non-Natural Bases as Anti-Viral Agents” (priority 2005, published 2010).

Details: in vivo

Structure (SMILES)	antiviral activity
NC(=O)c1nccn([C@@H]2O[C@H](CO)[C@@H](O)[C@H]2O)c1=O [non-phosphorylated nucleoside form]	appears to be inactive
NC(=O)c1nccn(C2OC(COP(=O)(O)OP(=O)(O)OP(=O)(O)O)C(O)C2O)c1=O (centres unmarked)	exhibits antiviral activity in vivo
